From patent US20100137313A1 (ASTRAZENECA AB, priority 2008, published 2010)

What follows are molecules tested against S. pneumoniae Topoisomerase IV ATPase (ParE) (Streptococcus pneumoniae serotype 4, UniProt Q59961) (assay: S. pneumoniae Topoisomerase IV ATPase inhibition). Settings: values marked * are an average of two or more data points, read-out: % Inh (13 μM) of S. pneumoniae Topoisomerase IV ATPase.
Sequence of S. pneumoniae Topoisomerase IV ATPase (ParE) (Q59961 whole entry): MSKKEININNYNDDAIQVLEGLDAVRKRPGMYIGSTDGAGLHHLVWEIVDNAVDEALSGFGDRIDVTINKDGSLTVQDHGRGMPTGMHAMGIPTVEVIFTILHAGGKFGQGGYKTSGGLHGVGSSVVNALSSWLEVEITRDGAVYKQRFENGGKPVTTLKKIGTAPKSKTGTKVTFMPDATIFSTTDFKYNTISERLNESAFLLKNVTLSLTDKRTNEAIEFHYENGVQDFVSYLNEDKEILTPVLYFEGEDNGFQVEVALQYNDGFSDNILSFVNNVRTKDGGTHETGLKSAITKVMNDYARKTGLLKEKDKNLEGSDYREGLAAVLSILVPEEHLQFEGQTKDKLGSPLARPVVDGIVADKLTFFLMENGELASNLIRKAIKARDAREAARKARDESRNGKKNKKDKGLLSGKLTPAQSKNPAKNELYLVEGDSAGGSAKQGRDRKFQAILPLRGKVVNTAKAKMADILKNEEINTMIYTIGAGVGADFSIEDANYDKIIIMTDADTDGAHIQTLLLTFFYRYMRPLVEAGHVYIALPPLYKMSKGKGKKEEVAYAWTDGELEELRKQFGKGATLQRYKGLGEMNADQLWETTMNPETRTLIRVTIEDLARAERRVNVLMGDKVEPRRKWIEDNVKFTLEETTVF
Assay type: biochemical
Summary of the method: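 Malachite green/ammonium molybdate phosphate detection, A650. 1.25 nM ParE, 160 μM ATP, sheared salmon sperm DNA 5 μg/ml, 20 mM Tris pH 8.0, 8.0 mM MgCl2. Controls: 2% DMSO = 0%, 20 μM EDTA = 100% inhibition; IC50 over 10 concentrations.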
COCCN1CCN(c2nc(Nc3ccc(F)c(Cl)c3)ncc2-c2cccc(/C=C/C(=O)O)c2)CC1 [Example 300, (E)-3-(3-(2-(3-chloro-4-fluorophenylamino)-4-(4-(2-methoxyethyl)piperazin-1-yl)pyrimidin-5-yl)phenyl)acrylic acid] was tested, and the inhibition at 13 µM was 82.3%.
Molecule COc1ncc(-c2cnc(Nc3cc(C)cc(C)c3)nc2-n2ccc(C(F)(F)F)n2)cc1C(=O)NS(C)(=O)=O [Example 898, 5-(2-(3,5-dimethylphenylamino)-4-(3-(trifluoromethyl)-1H-pyrazol-1-yl)pyrimidin-5-yl)-2-methoxy-N-(methylsulfonyl)nicotinamide] has an inhibition at 13 µM of 100%.
Work on COc1cc(Nc2ncc(-c3ccc(C(=O)O)s3)c(NCCCN(C)C)n2)cc(OC)c1 [Example 345, 5-(2-(3,5-dimethoxy-phenylamino)-4-(3-(dimethylamino)propyamino)pyrimidin-5-yl) thiophene-2-carboxylic acid] yielded an inhibition at 13 µM of 82.7%.
Molecule CCOC(=O)c1cncc(-c2cnc(Nc3ccc(F)c(Cl)c3)nc2NCCOc2ccccc2)c1 [Example 112] has an inhibition at 13 µM of 0.15%.
CCC(C)Nc1nc(Nc2ccc(F)c(Cl)c2)ncc1-c1ccc(Cl)c(NC(=O)OC(C)(C)C)c1 (stereo not shown) [Example 1110, tert-butyl N-[5-[4-(butan-2-ylamino)-2-[(3-chloro-4-fluorophenyl)amino]pyrimidin-5-yl]-2-chlorophenyl]carbamate] gave an inhibition at 13 µM of 99%.
CCOC(=O)/C=C/c1cccc(-c2cnc(Nc3ccc(F)c(Cl)c3)nc2-n2cnc(Cl)c2Cl)c1 [Example 161, ethyl (2E)-3-(3-{2-[(3-chloro-4-fluorophenyl)amino]-4-(4,5-dichloro-1H-imidazol-1-yl)pyrimidin-5-yl}phenyl)prop-2-enoate] was tested, and the inhibition at 13 µM was 74.8%.
For CCOC(=O)/C=C/c1cccc(-c2cnc(Nc3cc(C)c(Cl)cc3OC)nc2NCCCN(C)C)c1 [Example 343, (E)-ethyl 3-(3-(2-(4-chloro-2-methoxy-5-methylphenylamino)-4-(3-(dimethylamino)propylamino)pyrimidin-5-yl)phenyl)acrylate], the inhibition at 13 µM was -22.3%.
Work on COCC(COC)NC(=O)c1cncc(-c2cnc(Nc3ccc(F)c(Cl)c3)nc2-n2nc(C(F)(F)F)cc2C)c1 [Example 935, 5-(2-(3-chloro-4-fluorophenylamino)-4-(5-methyl-3-(trifluoromethyl)-1H-pyrazol-1-yl)pyrimidin-5-yl)-N-(1,3-dimethoxypropan-2-yl)nicotinamide] yielded an inhibition at 13 µM of 100%.
O=C(O)[C@@H]1CCCN1c1cccc(-c2cnc(Nc3ccc(F)c(Cl)c3)nc2-n2ccc(C(F)(F)F)n2)c1 [Example 599, 1-(3-{2-[(3-chloro-4-fluorophenyl)amino]-4-[3-(trifluoromethyl)-1H-pyrazol-1-yl]pyrimidin-5-yl}phenyl)-L-proline] was tested, and the inhibition at 13 µM was 94%.
For O=C(O)c1cncc(-c2cnc(Nc3ccc(F)c(Cl)c3)nc2N2CCC(N3CCOCC3)CC2)c1 [Example 246, 5-[2-[(3-chloro-4-fluorophenyl)amino]-4-(4-morpholin-4-ylpiperidin-1-yl)pyrimidin-5-yl]pyridine-3-carboxylic acid], the inhibition at 13 µM was 74.9%.
COC(=O)c1cc(-c2cnc(Nc3ccc(F)c(Cl)c3)nc2-n2nc(C(F)(F)F)cc2C)cnc1OC [Example 1008, Methyl 5-(2-(3-chloro-4-fluorophenylamino)-4-(5-methyl-3-(trifluoromethyl)-1H-pyrazol-1-yl)pyrimidin-5-yl)-2-methoxynicotinate] gave an inhibition at 13 µM of 83%.
In the case of Cc1cc(C)cc(Nc2ncc(-c3ccc4c(c3)C(=O)NS4(=O)=O)c(-n3nc(C(F)(F)F)cc3C)n2)c1 [Example 832, 5-{2-[(3,5-dimethylphenyl)amino]-4-[5-methyl-3-(trifluoromethyl)-1H-pyrazol-1-yl]pyrimidin-5-yl}-1,2-benzothiazol-3(2H)-one 1,1-dioxide], the inhibition at 13 µM was 100%.
Molecule Fc1ccc(Nc2ncc(-c3cncnc3)c(N3CCC(F)CC3)n2)cc1Cl [Example 64, N-(3-chloro-4-fluorophenyl)-4-(4-fluoropiperidin-1-yl)-5-pyrimidin-5-ylpyrimidin-2-amine] has an inhibition at 13 µM of 65.4%.
Work on O=C(c1cccc(-c2cnc(Nc3ccc(F)c(Cl)c3)nc2-n2ccc(C(F)(F)F)n2)c1)N1CCOCC1 [Example 1151, (3-(2-(3-chloro-4-fluorophenylamino)-4-(3-(trifluoromethyl)-1H-pyrazol-1-yl)pyrimidin-5-yl)phenyl)(morpholino)methanone] yielded an inhibition at 13 µM of 100%.
COc1cc(Nc2ncc(-c3cnc(N(C)C)c(C(=O)O)c3)c(-n3ccc(C(F)(F)F)n3)n2)cc(OC)c1 [Example 587, 5-(2-(3,5-dimethoxyphenylamino)-4-(3-(trifluoromethyl)-1H-pyrazol-1-yl)pyrimidin-5-yl)-2-(dimethylamino)nicotinic acid] was tested, and the inhibition at 13 µM was 100%.
For COCCCNc1nc(Nc2ccc(F)c(Cl)c2)ncc1-c1nc(-c2cncn2C)cs1 [Example 504, N^2-(3-chloro-4-fluorophenyl)-N^4-(3-methoxypropyl)-5-[4-(1-methyl-1H-imidazol-5-yl)-1,3-thiazol-2-yl]pyrimidine-2,4-diamine], the inhibition at 13 µM was 83%.
Work on Cc1cnc(CNc2nc(Nc3ccc(F)c(Cl)c3)ncc2-c2cncnc2)cn1 [Example 58, N^2-(3-chloro-4-fluorophenyl)-N^4-[(5-methylpyrazin-2-yl)methyl]-5-pyrimidin-5-ylpyrimidine-2,4-diamine] yielded an inhibition at 13 µM of 58%.
COc1ccc(CNc2nc(Nc3ccc(F)c(Cl)c3)ncc2-c2cnc(OC)nc2)cn1 [Example 465, N2-(3-chloro-4-fluorophenyl)-2′-methoxy-N4-((6-methoxypyridin-3-yl)methyl)-5,5′-bipyrimidine-2,4-diamine] showed an inhibition at 13 µM of 59%.
Work on Cc1cc(-c2nccs2)nn1-c1nc(Nc2ccc(F)c(Cl)c2)ncc1-c1cncc(C(N)=O)c1 [Example 537, 5-{2-[(3-chloro-4-fluorophenyl)amino]-4-[5-methyl-3-(1,3-thiazol-2-yl)-1H-pyrazol-1-yl]pyrimidin-5-yl}pyridine-3-carboxamide] yielded an inhibition at 13 µM of 100%.
Cc1cc(C(F)F)nn1-c1nc(Nc2ccc(F)c(Cl)c2)ncc1-c1cncc(C(=O)O)c1 [Example 530, 5-{2-[(3-chloro-4-fluorophenyl)amino]-4-[3-(difluoromethyl)-5-methyl-1H-pyrazol-1-yl]pyrimidin-5-yl}pyridine-3-carboxylic acid] was tested, and the inhibition at 13 µM was 100%.
Molecule COc1cc(Nc2ncc(-c3cc(C(=O)O)c(=O)n(CCS(C)(=O)=O)c3)c(-n3nc(C(F)(F)F)cc3C)n2)cc(OC)c1 [Example 1097, 5-(2-(3,5-Dimethoxyphenylamino)-4-(5-methyl-3-(trifluoromethyl)-1H-pyrazol-1-yl)pyrimidin-5-yl)-1-(2-(methylsulfonyl)ethyl)-2-oxo-1,2-dihydropyridine-3-carboxylic acid] has an inhibition at 13 µM of 100%.
COc1cc(Nc2ncc(-c3cnc(OC)c(C(=O)O)c3)c(-n3ccc(C(F)(F)F)n3)n2)cc(OC)c1 [Example 675, 5-{2-[(3,5-dimethoxyphenyl)amino]-4-[3-(trifluoromethyl)-1H-pyrazol-1-yl]pyrimidin-5-yl}-2-methoxypyridine-3-carboxylic acid] was tested, and the inhibition at 13 µM was 100%.
With CN(C(=O)c1cccc(-c2cnc(Nc3ccc(F)c(Cl)c3)nc2-n2ccc(C(F)(F)F)n2)c1)S(C)(=O)=O [Example 878, 3-(2-(3-chloro-4-fluorophenylamino)-4-(3-(trifluoromethyl)-1H-pyrazol-1-yl)pyrimidin-5-yl)-N-methyl-N-(methylsulfonyl)benzamide] the inhibition at 13 µM was 88%.
In the case of O=C(O)c1cccc(-c2cnc(Nc3ccc(F)c(Cl)c3)nc2-n2ccc(C(F)(F)F)n2)n1 [Example 877, 6-(2-(3-chloro-4-fluorophenylamino)-4-(3-(trifluoromethyl)-1H-pyrazol-1-yl)pyrimidin-5-yl)picolinic acid], the inhibition at 13 µM was 100%.
COc1cc(Nc2ncc(-c3cccc(/C=C/C(=O)O)c3)c(N3CCOCC3)n2)cc(OC)c1 [Example 351, (E)-3-(3-(2-(3,5-dimethoxyphenylamino)-4-morpholinopyrimidin-5-yl)phenyl) acrylic acid] gave an inhibition at 13 µM of 82.8%.
Molecule CN(C)CCCNc1nc(Nc2ccc(F)c(Cl)c2)ncc1-c1ccc(N)nc1 [Example 21, 5-(6-aminopyridin-3-yl)-N^2-(3-chloro-4-fluorophenyl)-N^4-[3-(dimethylamino)propyl]pyrimidine-2,4-diamine] has an inhibition at 13 µM of 71.7%.
With CN(C)C(=O)c1cccc(-c2cnc(Nc3ccc(F)c(Cl)c3)nc2-n2ccc(C(F)(F)F)n2)c1 [Example 1148, 3-(2-(3-chloro-4-fluorophenylamino)-4-(3-(trifluoromethyl)-1H-pyrazol-1-yl)pyrimidin-5-yl)-N,N-dimethylbenzamide] the inhibition at 13 µM was 24%.
Work on COC(=O)[C@@H](C)Nc1nc(Nc2ccc(F)c(Cl)c2)ncc1-c1cncnc1 [Example 56, methyl (2R)-2-[[2-[(3-chloro-4-fluorophenyl)amino]-5-pyrimidin-5-ylpyrimidin-4-yl]amino]propanoate] yielded an inhibition at 13 µM of 46.3%.
Molecule CCOC(=O)/C=C/c1cccc(-c2cnc(Nc3ccc(F)c(Cl)c3)nc2NCCCOC)c1 [Example 167, (E)-ethyl 3-(3-(2-(3-chloro-4-fluorophenylamino)-4-(3-methoxypropylamino)pyrimidin-5-yl)phenyl)acrylate] has an inhibition at 13 µM of 31.1%.
O=C(O)c1cncc(-c2cnc(Nc3ccc(F)c(Cl)c3)nc2N2CCCC2)c1 [Example 280, 5-(2-(3-chloro-4-fluorophenylamino)-4-(pyrrolidin-1-yl)pyrimidin-5-yl)nicotinic acid] was tested, and the inhibition at 13 µM was 83.4%.
In the case of N#Cc1cc(-c2cnc(Nc3ccc(F)c(Cl)c3)nc2-n2ccc(C(F)(F)F)n2)ccn1 [Example 890, 4-(2-(3-chloro-4-fluorophenylamino)-4-(3-(trifluoromethyl)-1H-pyrazol-1-yl)pyrimidin-5-yl)picolinonitrile], the inhibition at 13 µM was 91%.
